Consider 33 compounds from patent US20100210649A1, “PYRIDAZINONES AND FURAN-CONTAINING COMPOUNDS” (Sloan-Kettering Institute for Cancer Research, priority 2006, published 2010).

Where two headings read alike, the source gives them in different places.

Holding throughout (type): cell-based, human
One test deals with H3255. Kind of test: Non Small Cell Lung Cancer proliferation assay (Alamar Blue reduction), H3255. The following applies: primary screening, 10 μM compound in 1% DMSO (v/v); for inhibition at 10 µM: Homo sapiens, NCI-H3255. A digest of the protocol: (§1)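 Proliferation after 48 h compound exposure (1% DMSO final, 37 °C) was read by Alamar Blue reduction over an additional 48 h, fluorescence at 530 nm excitation/590 nm emission. Dose-response runs seeded 250 cells/well; DMSO-only wells as high control.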

The test system of a further test is H1650. The test is described as follows: Non Small Cell Lung Cancer proliferation assay (Alamar Blue reduction), H1650. The conditions noted are these: primary screening, 10 μM compound in 1% DMSO (v/v); for inhibition at 10 µM: Homo sapiens, NCI-H1650. A digest of the protocol: as §1
(In general: Alamar Blue is a resazurin reagent that responds to reducing activity.)

Another test deals with H2030. Kind of test: Non Small Cell Lung Cancer proliferation assay (Alamar Blue reduction), H2030. The conditions noted are these: primary screening, 10 μM compound in 1% DMSO (v/v); for inhibition at 10 µM: Homo sapiens, NCI-H2030. A digest of the protocol: as §1
The next test concerns H1975. The test is described as follows: Non Small Cell Lung Cancer proliferation assay (Alamar Blue reduction), H1975. The following applies: primary screening, 10 μM compound in 1% DMSO (v/v); for inhibition at 10 µM: Homo sapiens, NCI-H1975. A digest of the protocol: as §1
Where [1] appears, read: read-out: percentage inhibition H3255.
The mark [2] stands for this setting: read-out: percentage inhibition H1650.
Where [3] appears, read: read-out: percentage inhibition H2030.
The mark [4] stands for this setting: read-out: percentage inhibition H1975.
The mark [5] stands for this setting: H3255, read-out: PRIMARY HTS [%] H3255 (percentage inhibition).
[6] abbreviates: H1650, read-out: PRIMARY HTS [%] H1650 (percentage inhibition).
Setting [7] is: H2030, read-out: PRIMARY HTS [%] H2030 (percentage inhibition).
Setting [8] is: H1975, read-out: PRIMARY HTS [%] H1975 (percentage inhibition).

Usually inhibition stands for the change of the read-out against control, counted positive when it falls. `N=c1c(-c2nc3ccccc3[nH]2)cc(C(=O)c2cccs2)nn1-c1ccc(Cl)cc1` [compound 186017]: the inhibition at 10 µM with H3255 (setting [1]) was -13%; in the test on H1650 (setting [2]), -12%; in the test with H2030 (setting [3]), -4%; with H1975 (setting [4]), -6%.
For `O=c1c(Sc2ccccc2)c(Sc2ccccc2)cnn1-c1ccccc1` [compound 195070], in that order: -73%, 8%, -7% and 9%.
Take `CCCCSc1cnn(-c2ccccc2)c(=O)c1SCc1ccccc1` [compound 208696]: the inhibition at 10 µM with H3255 (setting [1]) was 37%; with H1650 (setting [2]) it was -2%; with H2030 (setting [3]), 4%; in the test on H1975 (setting [4]), -19%.
As to `O=C(Nc1ccc(Cl)cc1O)c1ccco1` [compound 75072], the inhibition at 10 µM in the test on H3255 (setting [5]) came out at 1%; in the test with H1650 (setting [6]), 13%; in the test on H2030 (setting [7]), 5%; in the test on H1975 (setting [8]), 0%.
`O=c1c(Cl)c(N2CCCC2)cnn1-c1ccccc1` [compound 103868]: the inhibition at 10 µM in the test on H3255 (setting [1]) is -3%; in the test with H1650 (setting [2]), -7%; with H2030 (setting [3]) it was -4%; in the test on H1975 (setting [4]) it was -18%.
For `CSc1cnn(-c2ccccc2)c(=O)c1SCc1ccccc1` [compound 224764], in that order: -32%, 21%, -10% and -5%.
Consider `O=c1c2c(cnn1-c1ccccc1)SC(c1ccccc1)S2` (stereo not drawn) [compound 182826], for which the “percentage inhibition H3255” value in the test with H3255 is on record as −13%. Further, the “percentage inhibition H1650” value with H1650 was 13%. Further, in the test on H2030, the “percentage inhibition H2030” value is reported as −11%. Besides, the “percentage inhibition H1975” value in the test on H1975 is 12%.
`Cc1cccc(-n2nc(C(=O)c3ccco3)cc(-c3nc4ccccc4[nH]3)c2=N)c1` [compound 181802]: the inhibition at 10 µM in the test with H3255 (setting [1]) was 27%; in the test on H1650 (setting [2]), -2%; with H2030 (setting [3]), -5%; in the test on H1975 (setting [4]), 14%.
With `Cc1cc(-n2ccc3c(C#N)c(=O)n(-c4ccccc4)nc3c2=O)[nH]n1` [compound 216994], the inhibition at 10 µM was -3% in the test with H3255 (setting [1]), 1% in the test with H1650 (setting [2]), 4% with H2030 (setting [3]) and 1% with H1975 (setting [4]).
With `O=C(Nc1cccc([N+](=O)[O-])c1)c1ccco1` [compound 87246], the inhibition at 10 µM with H3255 (setting [5]) was 5%; with H1650 (setting [6]), 8%; with H2030 (setting [7]) it was 9%; in the test with H1975 (setting [8]), -3%.
Regarding `O=c1c(Cl)c(Cl)cnn1-c1ccc(Cl)cc1` [compound 104004], the inhibition at 10 µM with H3255 (setting [1]) worked out at 90%; with H1650 (setting [2]), 1%; in the test on H2030 (setting [3]) it was 75%; with H1975 (setting [4]) it was 98%.
On to `CN1CCN(Cc2ccc([N+](=O)[O-])o2)CC1` [compound 100652], for which the inhibition at 10 µM is -3% in the test with H3255 (setting [5]), -12% with H1650 (setting [6]), -6% in the test on H2030 (setting [7]) and -2% in the test on H1975 (setting [8]).
The like results for `CCN(Cc1ccccc1)C(=O)c1ccc([N+](=O)[O-])o1` [compound 78535] were, in that order, 8%, 41%, 26% and -2%.
For `O=C(COc1cnn(-c2ccccc2)c(=O)c1Cl)c1ccc(Cl)cc1` [compound 177215], the inhibition at 10 µM in the test with H3255 (setting [1]) is 13%; in the test on H1650 (setting [2]) it was 6%; with H2030 (setting [3]) it was -9%; with H1975 (setting [4]) it was 25%.
The like results for `COc1ccc(Sc2cnn(-c3ccccc3)c(=O)c2Cl)cc1` [compound 181862] were, in that order, 22%, 7%, 9% and 3%.
The like results for `Nc1ccc(Sc2cnn(-c3ccccc3)c(=O)c2Cl)cc1` [compound 181612] were, in that order, 11%, 7%, 11% and -11%.
For `Cc1cc(Cl)ccc1NC(=O)CN1CCN(C(=O)c2ccco2)CC1` [compound 83809], the inhibition at 10 µM is 2% in the test on H3255 (setting [5]), 22% in the test with H1650 (setting [6]), 2% with H2030 (setting [7]) and -10% with H1975 (setting [8]).
For `O=c1c(Cl)c(N2CCN(CCO)CC2)cnn1-c1cccc(Cl)c1` [compound 194617], the inhibition at 10 µM is -5% with H3255 (setting [1]), -9% in the test on H1650 (setting [2]), -4% in the test on H2030 (setting [3]) and 9% in the test with H1975 (setting [4]).
As for `O=[N+]([O-])c1ccc(CN2CCN(Cc3ccccc3)CC2)o1` [compound 100507], the inhibition at 10 µM in the test with H3255 (setting [5]) was 1%; in the test on H1650 (setting [6]) it was -3%; in the test on H2030 (setting [7]) it was 7%; in the test on H1975 (setting [8]), -15%.
Consider `COc1cc(Cl)nn(-c2ccccc2)c1=O` [compound 206569], for which the inhibition at 10 µM is 22% in the test on H3255 (setting [1]), -2% in the test with H1650 (setting [2]), 7% in the test on H2030 (setting [3]) and 3% in the test on H1975 (setting [4]).
For `COc1ccc(-n2nc(C(=O)c3ccco3)cc(-c3nc4ccccc4[nH]3)c2=N)cc1` [compound 182721], in that order: 4%, 8%, 11% and 9%.
`COc1ccc(-n2nc(-n3cnc4ccccc43)c(C)c(C#N)c2=O)cc1` [compound 176963]: the inhibition at 10 µM is 17% with H3255 (setting [1]), 11% in the test with H1650 (setting [2]), 4% in the test with H2030 (setting [3]) and -5% in the test with H1975 (setting [4]).
The like results for `Cc1ccc(-n2ncc(SCc3ccccc3)c(Cl)c2=O)cc1` [compound 182830] were, in that order, -4%, 20%, 3% and 10%.
For `N=c1c(-c2nc3ccccc3[nH]2)cc(C(=O)c2ccco2)nn1-c1ccccc1` [compound 181801], in that order: 7%, 13%, -7% and 24%.
The like results for `COc1ccc(-n2nc(Cl)ccc2=O)cc1` [compound 194491] were, in that order, -32%, -2%, -12% and 0%.
Take `Cc1ccc(-n2nc(C(=O)O)c(/C=C/c3ccc(Cl)cc3Cl)c(C#N)c2=O)cc1C` [compound 227626]: the inhibition at 10 µM in the test on H3255 (setting [1]) was 71%; in the test with H1650 (setting [2]) it was -15%; in the test with H2030 (setting [3]) it was 0%; with H1975 (setting [4]) it was -14%.
In the case of `O=C(Nc1c(Cl)cccc1Cl)c1cc2ccccc2o1` [compound 60998], the inhibition at 10 µM came out at 1% in the test with H3255 (setting [5]), 10% with H1650 (setting [6]), 1% with H2030 (setting [7]) and 19% with H1975 (setting [8]).
As to `Cc1ccc([N+](=O)[O-])cc1NC(=O)c1ccco1` [compound 107911], the inhibition at 10 µM with H3255 (setting [5]) was 7%; in the test with H1650 (setting [6]), 8%; in the test on H2030 (setting [7]) it was 2%; in the test on H1975 (setting [8]) it was -15%.
Turning to `N=c1c(-c2nc3ccccc3[nH]2)cc(C(=O)c2cccs2)nn1-c1ccccc1` [compound 186924], the inhibition at 10 µM with H3255 (setting [1]) stood at 8%; with H1650 (setting [2]), 7%; in the test with H2030 (setting [3]), 1%; in the test on H1975 (setting [4]), 14%.
The like results for `COc1cnn(-c2cccc(C(F)(F)F)c2)c(=O)c1Cl` [compound 103872] were, in that order, -25%, 17%, 2% and 9%.
Turning to `Cc1ccc(C(=O)N2CCN(c3ccc(NC(=O)c4ccco4)cc3)CC2)cc1` [compound 95436], the inhibition at 10 µM in the test on H3255 (setting [5]) was -3%; in the test with H1650 (setting [6]), 2%; in the test with H2030 (setting [7]), 2%; with H1975 (setting [8]) it was -12%.
As to `O=c1c(Cl)c(Cl)c(Cl)nn1-c1ccc(Br)cc1` [compound 202245], the inhibition at 10 µM was 71% with H3255 (setting [1]), 48% in the test with H1650 (setting [2]), -8% in the test with H2030 (setting [3]) and 96% with H1975 (setting [4]).
The like results for `COc1c(Cl)cnn(-c2ccc(Cl)c(C(F)(F)F)c2)c1=O` [compound 174405] were, in that order, 32%, 13%, -9% and 28%.
